In patent publication US20220098154A1 (IDEAYA Biosciences, Inc., priority 2019, published 2022) one finds IC50 data, which are given here for 28 compounds.

SMILES strings stand for the structures. pIC50: −log10 of the molar value.

As a reminder, the pIC50 is the negative decadic logarithm of the IC50, by convention in mol/L. Low values mean a high IC50, high ones a low IC50.

This assay deals with T1, Pol theta polymerase domain (residues 1819-2590) (Homo sapiens, UniProt O75417).
T1 construct: Pol theta polymerase domain (residues 1819-2590)
T1 sequence (O75417 1819-2590): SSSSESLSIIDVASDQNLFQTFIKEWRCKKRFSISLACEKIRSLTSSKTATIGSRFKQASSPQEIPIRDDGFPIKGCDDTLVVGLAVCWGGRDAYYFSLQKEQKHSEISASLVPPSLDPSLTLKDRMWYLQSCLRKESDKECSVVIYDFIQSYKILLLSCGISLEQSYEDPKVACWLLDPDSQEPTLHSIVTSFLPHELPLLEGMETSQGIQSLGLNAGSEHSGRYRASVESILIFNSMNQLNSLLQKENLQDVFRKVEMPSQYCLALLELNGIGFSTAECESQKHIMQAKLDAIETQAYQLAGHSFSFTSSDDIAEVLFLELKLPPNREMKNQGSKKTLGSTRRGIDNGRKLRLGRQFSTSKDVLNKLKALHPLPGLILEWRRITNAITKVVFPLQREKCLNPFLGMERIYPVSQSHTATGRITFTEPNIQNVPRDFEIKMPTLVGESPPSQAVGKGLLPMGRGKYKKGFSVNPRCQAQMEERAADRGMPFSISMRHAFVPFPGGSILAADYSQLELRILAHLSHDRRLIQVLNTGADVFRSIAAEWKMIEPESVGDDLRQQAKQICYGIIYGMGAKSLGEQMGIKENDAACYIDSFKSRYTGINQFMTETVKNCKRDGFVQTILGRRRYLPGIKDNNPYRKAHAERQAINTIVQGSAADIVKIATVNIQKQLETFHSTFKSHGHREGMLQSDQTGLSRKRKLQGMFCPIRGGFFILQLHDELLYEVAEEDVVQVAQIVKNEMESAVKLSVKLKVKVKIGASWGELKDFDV
The experiment in a line: Primer extension assay: inhibition of polymerase activity of Pol theta (molecular beacon fluorescence). It is filed as biochemical. The following applies: Pol theta polymerase domain 4 nM; 15 min pre-incubation; fluorescence change over 30 min (ex 485 nm, em 535 nm); 11-point dilution series. Here is the method: The ability of the compounds of Formula (I) to inhibit polymerase activity of Pol theta was determined using the assay described below.
A mixture of 20 uL of Pol theta polymerase domain (residues 1819-2590) at a final concentration of 4 nM in assay buffer (20 m M TRIS, pH 7.80, 50 mM KCl, 10 mM MgCl2, 1 mM DTT, 0.01% BSA, 0.01% Tween20) was added to test compounds (11-point dilution series of test compounds) except the low control wells without test compounds. The above enzyme and test compound inhibitor mixture was then incubated at room temperature for 15 min. An equal volume (20 μl) of dNTP substrate mixture (48 μM) and primed molecular beacon DNA (obtained by annealing template SEQ ID NO 2: (5′-CCTTCCTCCCGTGTCTTG-TACCTTCCCGTCA-GGAGGAAGG-3′) with 5′-TAMRA and 3′-BHQ and primer DNA (SEQ ID NO: 3; 5′-GACGGGAAGG-3′) in 10 mM Tris-HCl pH 8.0, 100 mM NaCl buffer) (96 nM) in assay buffer was added to all the test wells. The inhibition activity was measured by monitoring the fluorescence change over 30 min at 535 nm upon excitation at 485 nm. The high control (DMSO with enzyme) with high fluorescence intensity represents no inhibition of polymerase reaction while the low control (DMSO with buffer) with low fluorescence intensity represents full inhibition of polymerase activity. Slope of the reaction progress curves were used to calculate the rate of polymerization. The rates were used to determine the percent inhibition using a four-parameter inhibition model to generate IC50, Hill slope and max inhibition.
For the compound `Cc1nc(NCC(=O)N(C)c2ccc(F)cc2)c(C#N)c(C)c1Cl` [Example 42, 2-(5-chloro-3-cyano-4,6-dimethylpyridin-2-ylamino)-N-(4-fluorophenyl)-N-methylacetamide], the pIC50 was greater than 6.70. As for `Cc1nc(N[C@@H](C)C(=O)N(C)c2ccc(F)cc2)c(C#N)c(C)c1Cl` [Example 25, (S)-2-((5-chloro-3-cyano-4,6-dimethylpyridin-2-yl)-amino)-N-(4-fluorophenyl)-N-methylpropanamide], the pIC50 was greater than 6.70. In the case of `Cc1nc(NCC(=O)N(C)c2ccc(Cl)c(Cl)c2)c(C#N)c(C)c1Cl` [Example 32, 2-(5-chloro-3-cyano-4,6-dimethylpyridin-2-ylamino)-N-(3,4-dichlorophenyl)-N-methylacetamide], the pIC50 is greater than 6.70.

Take `Cc1nc(OCC(=O)N(C)c2ccc(Cl)cc2)c(C#N)c(C)c1Cl` [Example 41, 2-[(5-chloro-3-cyano-4,6-dimethylpyridin-2-yl)oxy]-N-(4-chloro-phenyl)-N-methylacetamide]: the pIC50 was greater than 6.70. In the case of `Cc1nc(OCC(=O)N(C)c2ccc(Br)cc2)c(C#N)c(C)c1Cl` [Example 35, N-(4-bromophenyl)-2-[(5-chloro-3-cyano-4,6-dimethylpyridin-2-yl)oxy]-N-methylacetamide] it was greater than 6.70; in that of `CN(C(=O)CNc1nc(C(F)(F)F)cc(C(F)(F)F)c1C#N)c1ccc(OC(F)(F)F)cc1` [Example 6, 2-((3-cyano-4,6-bis(trifluoromethyl)pyridin-2-yl)-amino)-N-methyl-N-(4-(trifluoromethoxy)phenyl)-acetamide], greater than 6.70; in that of `CN(C(=O)CNc1nc(C(F)(F)F)cc(C(F)(F)F)c1C#N)c1ccc2c(c1)ncn2C` [Example 50, 2-((3-cyano-4,6-bis(trifluoromethyl)pyridin-2-yl)amino)-N-methyl-N-(1-methyl-1H-benzo[d]imidazol-5-yl)acetamide], greater than 6.70. `Cc1nc(OCC(=O)N(C)c2ccc(Cl)c(Cl)c2)c(C#N)c(C)c1Cl` [Example 33, 2-(5-chloro-3-cyano-4,6-dimethylpyridin-2-yloxy)-N-(3,4-dichlorophenyl)-N-methylacetamide] showed a pIC50 greater than 6.70. As for `CN(C(=O)CNc1nc(C(F)(F)F)cc(C(F)(F)F)c1C#N)c1ccc2c(cnn2C)c1` [Example 54, 2-((3-cyano-4,6-bis(trifluoromethyl)pyridin-2-yl)amino)-N-methyl-N-(1-methyl-1H-indazol-5-yl)acetamide], the figure is greater than 6.70. As for `N#Cc1c(C(F)(F)F)cc(C(F)(F)F)nc1NCC(=O)N(CC(F)(F)F)c1ccc(F)cc1` [Example 8, 2-(3-cyano-4,6-bis(trifluoromethyl)pyridin-2-yl-amino)-N-(4-fluorophenyl)-N-(2,2,2-trifluoroethyl)-acetamide], the figure is greater than 6.70. `Cc1nc(NCC(=O)N(C)c2ccccc2)c(C#N)cc1Cl` [Example 38, 2-(5-chloro-3-cyano-6-methylpyridin-2-ylamino)-N-methyl-N-phenylacetamide] gave a negative logarithm of the IC50 (pIC50) of 6.30 to 6.70.

Compound `CN(C(=O)CNc1nc(C(F)(F)F)cc(C(F)(F)F)c1C#N)c1cccc(C(N)=O)c1` [Example 1, 3-(2-(3-cyano-4,6-bis(trifluoromethyl)pyridin-2-yl-amino)-N-methylacetamido)benzamide] had a pIC50 of 6.00 to 6.30. In the case of `Cc1nc(OCC(=O)N(C)c2ccc(F)cc2)c(C#N)c(C)c1Cl` [Example 43, 2-[(5-chloro-3-cyano-4,6-dimethylpyridin-2-yl)oxy]-N-(4-fluoro-phenyl)-N-methylacetamide] it was greater than 6.70; in that of `Cc1cc(NCC(=O)N(C)c2ccccc2)nc(C)c1Cl` [Example 34, 2-[(5-chloro-4,6-dimethylpyridin-2-yl)amino]-N-methyl-N phenylacetamide], 6.00 to 6.30. As for `[2H]C([2H])([2H])N(C(=O)CNc1nc(C(F)(F)F)cc(C(F)(F)F)c1C#N)c1ccc(F)cc1` [Example 47, 2-((3-cyano-4,6-bis(trifluoromethyl)pyridin-2-yl)amino)-N-(4-fluorophenyl)-N-(methyl-d3)acetamide], the figure is greater than 6.70. Consider `CN(C(=O)CNc1nc(C(F)(F)F)cc(C(F)(F)F)c1C#N)c1ccc(Br)cc1` [Example 61, N-(4-bromophenyl)-2-((3-cyano-4,6-bis(trifluoromethyl)pyridin-2-yl)amino)-N-methylacetamide], for which the pIC50 is greater than 6.70.

In turn, `CN(C(=O)CNc1cc(Cl)cc(C(F)(F)F)c1C#N)c1ccc(F)cc1` [Example 11, 2-[[5-chloro-2-cyano-3-(trifluoromethyl)phenyl]-amino]-N-(4-fluorophenyl)-N-methylacetamide] showed a pIC50 greater than 6.70.

Consider `N#Cc1c(C(F)(F)F)cc(C(F)(F)F)nc1NCC(=O)N(c1ccc(F)cc1)C1CC1` [Example 4, 2-((3-cyano-4,6-bis(trifluoromethyl)pyridin-2-yl)-amino)-N-cyclopropyl-N-(4-fluorophenyl)acetamide], for which the pIC50 is greater than 6.70. As for `Cc1nc(N[C@@H](CC(N)=O)C(=O)N(C)c2ccc(F)cc2)c(C#N)c(C)c1Cl` [Example 18, (S)-2-(5-chloro-3-cyano-4,6-dimethylpyridin-2-yl-amino)-N1-(4-fluorophenyl)-N1-methylsuccinamide], the figure is 6.30 to 6.70. In the case of `CN(C(=O)CNc1cc(C(F)(F)F)cc(C(F)(F)F)n1)c1ccc(F)cc1` [Example 7, 2-((4,6-bis(trifluoromethyl)pyridin-2-yl)amino)-N-(4-fluoro-phenyl)-N-methylacetamide] it was greater than 6.70; in that of `CN(C(=O)CNc1nc(C(F)(F)F)cc(C(F)(F)F)c1C#N)c1ccc(F)cc1C#N` [Example 49, 2-((3-cyano-4,6-bis(trifluoromethyl)pyridin-2-yl)amino)-N-(2-cyano-4-fluorophenyl)-N-methylacetamide], 6.00 to 6.30. In the case of `Cc1nc(NCC(=O)N(C)c2ccc(F)cc2)c(C#N)c2c1CCC2` [Example 28, 2-(4-cyano-1-methyl-6,7-dihydro-5H-cyclopenta[c]-pyridin-3-ylamino)-N-(4-fluorophenyl)-N-methylacetamide] it was greater than 6.70. In turn, `Cc1nc(NCC(=O)N(C)c2ccc(Cl)cc2)c(C#N)c(C)c1Cl` [Example 40, 2-(5-chloro-3-cyano-4,6-dimethylpyridin-2-ylamino)-N-(4-chlorophenyl)-N-methylacetamide] showed a pIC50 greater than 6.70. In the case of `Cc1cc2cc(N(C)C(=O)CNc3nc(C(F)(F)F)cc(C(F)(F)F)c3C#N)ccc2o1` [Example 52, 2-((3-cyano-4,6-bis(trifluoromethyl)pyridin-2-yl)amino)-N-methyl-N-(2-methylbenzofuran-5-yl)acetamide] it was greater than 6.70; in that of `Cc1nc(NCC(=O)N(c2ccc(Cl)cc2)C(C)C)c(C#N)c(C)c1Cl` [Example 30, 2-[(5-chloro-3-cyano-4,6-dimethylpyridin-2-yl)-amino]-N-(4-chlorophenyl)-N-(propan-2-yl)-acetamide], 6.30 to 6.70. As for `CN(C(=O)CNc1cc(C(F)(F)F)cc(C(F)(F)F)c1)c1ccc(F)cc1` [Example 12, 2-((3,5-bis(trifluoromethyl)phenyl)amino)-N-(4-fluorophenyl)-N-methylacetamide], the figure is greater than 6.70.

As to `CN(C(=O)CNc1nc(C(F)(F)F)cc(C(F)(F)F)n1)c1ccc(F)cc1` [Example 2, 2-(4,6-bis(trifluoromethyl)pyrimidin-2-ylamino)-N-(4-fluoro-phenyl)-N-methylacetamide], the pIC50 was greater than 6.70. As for `Cc1c(C#N)c(NCC(=O)N(C)c2ccc(F)cc2)nc2c1CCC2` [Example 27, 2-([3-cyano-4-methyl-5H,6H,7H-cyclopenta[b]-pyridin-2-yl]amino)-N-(4-fluorophenyl)-N-methylacetamide], the figure is greater than 6.70.
